15 compounds from patent US10077261B2, “Imidazolin-5-one derivative useful as FASN inhibitors for the treatment of cancer” (Janssen Pharmaceutica NV, priority 2012, dated 2018) can be followed below.

The subject of assay [1] is A2780 ovarian cells. Nature of the assay: A2780 ovarian cell proliferation assay in lipid reduced medium, with palmitate (MTT). Type of assay: cell-based. Particulars: Homo sapiens, A2780, 96 h; read-out: pIC50 A2780 Ovarian Cell, With Palmitate (converted). The method, boiled down: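 In this palmitate-supplemented format, compound dilutions (30 μM down to 0.01 μM) are added to cells in lipid-reduced serum with 25 μM palmitate, 0.2% fatty-acid-free BSA and 0.25% ethanol. After four days (96 h) MTT absorbance at 544 nm is recorded and fitted by minimum sum of squares.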

Assay [2] has as its target T1, hFASN enzyme (full length) (Homo sapiens, UniProt P49327).
T1 construct: 10 μL hFASN enzyme (full length, 300 ng, purified in house); made in house
Nature of the assay: Fatty Acid Synthase (FASN) inhibition scintillation proximity assay. The following applies: for inhibition at 10 µM: read-out: Human FASN % inhibition @ 10 μM, 10 μM test compound; for IC50: read-out: Human FASN pIC50 (converted). The assay is classed as biochemical. A digest of the protocol:
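Read-out relies on hydrophobic ³H-palmitate product, formed from ³H-acetyl-CoA and malonyl-CoA, binding streptavidin imaging beads, measured at 610±20 nm after at least 24 h. Full-length enzyme (300 ng) in phosphate buffer pH 7.5 with DTT; eight compound concentrations, 0.01–30 μM.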
Background: In a scintillation proximity assay essentially only radioactivity close to the scintillant gives light.

Assay [3] addresses Fatty Acid Synthase Keto-reductase Domain (FASN KR) (Homo sapiens, UniProt P49327). Nature of the assay: Fatty Acid Synthase keto-reductase domain (FASN KR) inhibition, NADPH oxidation at 340 nm.
Method: After 20 minutes incubation at room temperature the plate was measured again (T2).
The decrease in absorbance was calculated as (Absorbance before incubation T1)−(Absorbance following incubation T2).
A plot of Controlmin versus test compound concentration was fitted to a 4-parameter logistic curve using a non-linear least squares regression method.
For assay [4], the system named is PC-3M-Luc-C6 prostate cells. Nature of the assay: In vitro PC-3M-Luc-C6 prostate cell proliferation assay in lipid reduced medium. Type of assay: cell-based. The following applies: 96 h, read-out: pIC50 PC-3M-Luc-C6 prostate cell (converted).
The subject of assay [5] is LNCaP-Vancouver prostate cells. Nature of the assay: In vitro LNCaP Vancouver prostate cell proliferation assay in lipid reduced medium. Type of assay: cell-based. Particulars: read-out: pIC50 LNCaP_Vancouver prostate cell (converted).
Assay [6] relates to A2780 ovarian cells. The assay is described as follows: A2780 ovarian cell proliferation assay in lipid reduced medium, without palmitate (MTT). The assay is classed as cell-based. The following applies: Homo sapiens, A2780, 96 h; read-out: pIC50 A2780 Ovarian Cell, Without Palmitate (converted).

Where only a bound is given, the exact number is not on record here.

Fatty Acid Synthase Keto-reductase Domain (FASN KR), sequence (P49327 whole entry, the tested form may be a part): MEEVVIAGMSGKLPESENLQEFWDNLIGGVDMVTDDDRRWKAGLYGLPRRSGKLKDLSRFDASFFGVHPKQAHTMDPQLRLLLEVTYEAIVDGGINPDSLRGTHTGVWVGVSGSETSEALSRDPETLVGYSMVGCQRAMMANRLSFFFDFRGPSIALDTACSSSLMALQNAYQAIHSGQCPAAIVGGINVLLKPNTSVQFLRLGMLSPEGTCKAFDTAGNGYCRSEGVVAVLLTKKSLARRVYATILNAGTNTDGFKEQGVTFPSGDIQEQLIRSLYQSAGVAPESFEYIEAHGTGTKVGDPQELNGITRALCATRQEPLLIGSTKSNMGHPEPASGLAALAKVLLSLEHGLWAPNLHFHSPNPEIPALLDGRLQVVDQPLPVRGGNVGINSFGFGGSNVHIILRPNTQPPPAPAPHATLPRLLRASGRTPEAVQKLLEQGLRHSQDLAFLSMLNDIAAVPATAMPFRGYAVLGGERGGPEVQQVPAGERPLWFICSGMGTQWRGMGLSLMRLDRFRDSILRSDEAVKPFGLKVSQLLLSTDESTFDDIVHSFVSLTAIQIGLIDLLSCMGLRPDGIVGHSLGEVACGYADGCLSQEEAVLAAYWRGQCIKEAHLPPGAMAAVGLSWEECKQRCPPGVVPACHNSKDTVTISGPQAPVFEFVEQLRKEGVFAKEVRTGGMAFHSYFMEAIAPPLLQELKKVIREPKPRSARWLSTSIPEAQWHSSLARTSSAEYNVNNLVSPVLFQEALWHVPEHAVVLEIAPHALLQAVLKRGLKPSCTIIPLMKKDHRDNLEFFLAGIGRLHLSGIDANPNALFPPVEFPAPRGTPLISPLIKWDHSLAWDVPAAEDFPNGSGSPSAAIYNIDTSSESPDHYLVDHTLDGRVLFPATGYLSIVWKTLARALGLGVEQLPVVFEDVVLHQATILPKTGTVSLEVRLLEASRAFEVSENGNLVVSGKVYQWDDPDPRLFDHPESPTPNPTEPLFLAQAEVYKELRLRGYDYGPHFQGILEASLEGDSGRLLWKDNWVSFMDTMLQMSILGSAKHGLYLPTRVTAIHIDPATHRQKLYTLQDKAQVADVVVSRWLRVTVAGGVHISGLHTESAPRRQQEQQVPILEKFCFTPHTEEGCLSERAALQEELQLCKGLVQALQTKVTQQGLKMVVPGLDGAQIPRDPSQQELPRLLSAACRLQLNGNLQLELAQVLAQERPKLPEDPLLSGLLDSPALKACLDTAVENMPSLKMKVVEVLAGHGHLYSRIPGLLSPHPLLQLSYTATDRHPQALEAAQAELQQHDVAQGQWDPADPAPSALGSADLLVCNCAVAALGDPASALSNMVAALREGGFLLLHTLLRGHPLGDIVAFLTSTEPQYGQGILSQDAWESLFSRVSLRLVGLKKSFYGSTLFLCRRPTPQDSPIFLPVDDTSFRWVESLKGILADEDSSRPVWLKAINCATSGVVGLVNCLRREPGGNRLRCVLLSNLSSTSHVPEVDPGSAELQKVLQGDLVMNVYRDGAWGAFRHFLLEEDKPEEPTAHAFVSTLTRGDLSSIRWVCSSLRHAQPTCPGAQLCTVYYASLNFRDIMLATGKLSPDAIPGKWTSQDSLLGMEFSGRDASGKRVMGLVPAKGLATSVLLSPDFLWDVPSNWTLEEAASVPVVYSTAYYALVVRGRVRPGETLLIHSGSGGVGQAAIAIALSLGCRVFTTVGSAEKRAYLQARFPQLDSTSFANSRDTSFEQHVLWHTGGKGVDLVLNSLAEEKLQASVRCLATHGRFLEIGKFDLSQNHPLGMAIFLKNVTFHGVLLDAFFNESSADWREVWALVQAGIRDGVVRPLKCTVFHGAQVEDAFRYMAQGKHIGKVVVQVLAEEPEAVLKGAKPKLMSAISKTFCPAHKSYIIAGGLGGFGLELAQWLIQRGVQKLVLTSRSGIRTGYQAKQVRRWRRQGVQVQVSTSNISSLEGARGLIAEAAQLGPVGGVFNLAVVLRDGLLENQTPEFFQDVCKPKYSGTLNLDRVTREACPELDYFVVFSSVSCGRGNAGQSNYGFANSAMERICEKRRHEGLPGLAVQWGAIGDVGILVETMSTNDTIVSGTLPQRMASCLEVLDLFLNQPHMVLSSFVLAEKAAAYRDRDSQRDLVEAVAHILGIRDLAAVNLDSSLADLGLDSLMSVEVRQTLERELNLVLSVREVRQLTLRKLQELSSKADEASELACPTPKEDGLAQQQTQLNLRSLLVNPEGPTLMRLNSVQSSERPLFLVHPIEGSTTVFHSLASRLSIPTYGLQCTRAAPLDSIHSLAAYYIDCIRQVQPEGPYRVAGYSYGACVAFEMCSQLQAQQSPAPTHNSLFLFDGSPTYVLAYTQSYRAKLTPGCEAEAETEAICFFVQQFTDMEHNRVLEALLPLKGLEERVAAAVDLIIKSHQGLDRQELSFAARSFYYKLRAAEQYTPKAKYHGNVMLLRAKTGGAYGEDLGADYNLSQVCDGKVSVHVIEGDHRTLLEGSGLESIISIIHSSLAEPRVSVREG
T1 sequence (P49327 whole entry): as the sequence (P49327 whole entry, the tested form may be a part) above

The term inhibition denotes the relative decrease from the control value, in per cent. As to `O=C(C1CC1)N1CC[C@@H](CN2C(=O)C3(CC3)N=C2c2ccc(-c3ccc4cc[nH]c4c3)cc2)C1` [compound 301, (R)-5-(4-(1H-indol-6-yl)phenyl)-6-((1-(cyclopropanecarbonyl)pyrrolidin-3-yl)methyl)-4,6-diazaspiro[2.4]hept-4-en-7-one], the IC50 in the assay with A2780 ovarian cells [1] is greater than 10000 nM; in assay [2], 20 nM; in assay [3], 27.5 nM; in assay [4] it was 12 nM; in assay [5], 275 nM; in the assay on A2780 ovarian cells [6] it was 14.8 nM. In addition, the inhibition at 10 µM in assay [2] was determined as 99%.

With `Cc1cc(-c2ccc3cc[nH]c3c2)ccc1C1=NC2(CC2)C(=O)N1CC1CN(C(=O)C2CC2)C1` [compound 303, 5-(4-(1H-indol-6-yl)-2-methylphenyl)-6-((1-(cyclopropancarbonyl)azetidin-3-yl)methyl)-4,6-diazaspiro[2.4]hept-4-en-7-one], the IC50 in the assay on A2780 ovarian cells [1] is greater than 6170 nM; in assay [2], 30.9 nM; in assay [3], 69.2 nM; in assay [4], 39.8 nM; in assay [5], roughly 912 nM; with A2780 ovarian cells [6] it was 28.8 nM. In assay [2], the inhibition at 10 µM was 102%.

For the compound `Cc1cc(-c2cccc3[nH]ncc23)ccc1C1=NC2(CC2)C(=O)N1CC1CN(C(=O)C2CC2)C1` [compound 304, 5-(4-(1H-indazol-4-yl)-2-methylphenyl)-6-((1-(cyclopropanecarbonyl)azetidin-3-yl)methyl)-4,6-diazaspiro[2.4]hept-4-en-7-one], the IC50 in the assay with A2780 ovarian cells [1] is greater than 10000 nM; in assay [2], 97.7 nM; in assay [3], 224 nM; in assay [4] it was 72.4 nM; in assay [5], 1260 nM; with A2780 ovarian cells [6] it was 85.1 nM. Besides, the inhibition at 10 µM in assay [2] came to 99%.

In the case of `Cc1cc(-c2ccc3cc[nH]c3c2)ccc1C1=NC2(CC2)C(=O)N1C[C@@H]1CCN(C(=O)C2CC2)C1` [compound 305, (R)-5-(4-(1H-indol-6-yl)-2-methylphenyl)-6-((1-(cyclopropanecarbonyl)pyrrolidin-3-yl)methyl)-4,6-diazaspiro[2.4]hept-4-en-7-one], the IC50 in the assay with A2780 ovarian cells [1] was greater than 10000 nM; in assay [2], 25.1 nM; in assay [3] it was 30.9 nM; in assay [4], 28.8 nM; in assay [5], 263 nM; with A2780 ovarian cells [6], 40.7 nM. In addition, the inhibition at 10 µM in assay [2] was determined as 103%.

For the compound `Cc1cc(-c2cccc3[nH]ncc23)ccc1C1=NC2(CC2)C(=O)N1C[C@@H]1CCN(C(=O)C2CC2)C1` [compound 306, (R)-5-(4-(1H-indazol-4-yl)-2-methylphenyl)-6-((1-(cyclopropanecarbonyl)pyrrolidin-3-yl)methyl)-4,6-diazaspiro[2.4]hept-4-en-7-one], the IC50 in the assay on A2780 ovarian cells [1] is greater than 10000 nM; in assay [2] it was 50.1 nM; in assay [3], 105 nM; in assay [4], 17 nM; in assay [5], 513 nM; in the assay with A2780 ovarian cells [6], 17.8 nM. The inhibition at 10 µM in assay [2] turned out to be 98%.

Regarding `O=C(C1CC1)N1CC[C@@H](CN2C(=O)C3(CC3)N=C2c2ccc(-c3nc4ccccc4o3)cc2)C1` [compound 307, (R)-5-(4-(benzo[d]oxazol-2-yl)phenyl)-6-((1-(cyclopropanecarbonyl)pyrrolidin-3-yl)methyl)-4,6-diazaspiro[2.4]hept-4-en-7-one], the IC50 with A2780 ovarian cells [1] was greater than 10000 nM; in assay [2] it was 67.6 nM; in assay [3], 145 nM; in assay [4] it was 102 nM; in assay [5], 661 nM; in the assay on A2780 ovarian cells [6], 91.2 nM. The inhibition at 10 µM in assay [2] stood at 100%.

For the compound `O=C(C1CC1)N1CC[C@@H](CN2C(=O)C3(CC3)N=C2c2ccc(-c3nc4ccccc4s3)cc2)C1` [compound 308, (R)-5-(4-(benzo[d]thiazol-2-yl)phenyl)-6-((1-(cyclopropanecarbonyl)pyrrolidin-3-yl)methyl)-4,6-diazaspiro[2.4]hept-4-en-7-one], the IC50 in the assay with A2780 ovarian cells [1] is greater than 10000 nM; in assay [2] it was 47.9 nM; in assay [3], 129 nM; in assay [4] it was 100 nM; in assay [5] it was 479 nM; with A2780 ovarian cells [6] it was 145 nM. In assay [2], the inhibition at 10 µM stood at 102%.

With `O=C(C1CC1)N1CC[C@@H](CN2C(=O)C3(CC3)N=C2c2ccc(-c3cccc4ncccc34)cc2)C1` [compound 310, (R)-6-((1-(cyclopropanecarbonyl)pyrrolidin-3-yl)methyl)-5-(4-(quinolin-5-yl)phenyl)-4,6-diazaspiro[2.4]hept-4-en-7-one], the IC50 was greater than 6170 nM in the assay on A2780 ovarian cells [1]; 39.8 nM in assay [2]; 60.3 nM in assay [3]; roughly 324 nM in assay [4]; 813 nM in assay [5]; 589 nM in the assay on A2780 ovarian cells [6]. Moreover, the inhibition at 10 µM in assay [2] stood at 102%.

In the case of `O=C(C1CC1)N1CC[C@@H](CN2C(=O)C3(CC3)N=C2c2ccc(-c3ccc4cccc(F)c4c3)cc2)C1` [compound 313, (R)-6-((1-(cyclopropanecarbonyl)pyrrolidin-3-yl)methyl)-5-(4-(8-fluoronaphthalen-2-yl)phenyl)-4,6-diazaspiro[2.4]hept-4-en-7-one], the IC50 was 8710 nM with A2780 ovarian cells [1]; 38.9 nM in assay [2]; 52.5 nM in assay [3]; roughly 52.5 nM in assay [4]; 155 nM in assay [5]; 53.7 nM in the assay on A2780 ovarian cells [6]. Moreover, the inhibition at 10 µM in assay [2] came out at 99%.

`Cc1cc(-c2ccc(-c3cnn(C)c3)cc2)ccc1C1=NC2(CC2)C(=O)N1C[C@@H]1CCN(C(=O)C2CC2)C1` [compound 316, (R)-6-((1-(cyclopropanecarbonyl)pyrrolidin-3-yl)methyl)-5-(3-methyl-4′-(1-methyl-1H-pyrazol-4-yl)-[1,1′-biphenyl]-4-yl)-4,6-diazaspiro[2.4]hept-4-en-7-one]: the IC50 in the assay on A2780 ovarian cells [1] was greater than 10000 nM; in assay [2], 41.7 nM; in assay [3], 75.9 nM; in assay [4], 19.5 nM; in assay [5], 102 nM; in the assay with A2780 ovarian cells [6], roughly 15.8 nM. Moreover, the inhibition at 10 µM in assay [2] worked out at 108%.

In the case of `Cc1cc2cc(-c3ccc(C4=NC5(CC5)C(=O)N4C[C@@H]4CCN(C(=O)C5CC5)C4)c(C)c3)ccc2[nH]1` [compound 317], the IC50 in the assay on A2780 ovarian cells [1] is greater than 10000 nM; in assay [2] it was 57.5 nM; in assay [3], 58.9 nM; in assay [4], 51.3 nM; in assay [5], 257 nM; in the assay with A2780 ovarian cells [6] it was 24.5 nM. The inhibition at 10 µM in assay [2] is 103%.

`Cc1cc2cc(-c3ccc(C4=NC5(CC5)C(=O)N4C[C@@H]4CCN(C(=O)C5CC5)C4)c(F)c3)ccc2[nH]1` [compound 319, (R)-6-((1-(cyclopropanecarbonyl)pyrrolidin-3-yl)methyl)-5-(2-fluoro-4-(2-methyl-1H-indol-5-yl)phenyl)-4,6-diazaspiro[2.4]hept-4-en-7-one]: the IC50 in the assay on A2780 ovarian cells [1] is greater than 10000 nM; in assay [2] it was 28.8 nM; in assay [3] it was 53.7 nM; in assay [4] it was 18.6 nM; in assay [5], 112 nM; in the assay with A2780 ovarian cells [6] it was roughly 13.5 nM. Besides, the inhibition at 10 µM in assay [2] amounted to 105%.

For the compound `O=C(C1CC1)N1CC(CN2C(=O)C3(CC3)N=C2c2ccc(-c3ccc4cc(Cl)ccc4c3)cc2F)C1` [compound 320, 5-(4-(6-chloronaphthalen-2-yl)-2-fluorophenyl)-6-((1-(cyclopropanecarbonyl)azetidin-3-yl)methyl)-4,6-diazaspiro[2.4]hept-4-en-7-one], the IC50 was 6460 nM in the assay with A2780 ovarian cells [1]; 25.7 nM in assay [2]; roughly 26.9 nM in assay [3]; 50.1 nM in assay [4]; 251 nM in assay [5]; 25.1 nM in the assay on A2780 ovarian cells [6]. For the same compound, in assay [2], the inhibition at 10 µM turned out to be 102%.

As for `Cc1cc(-c2ccc3cc(Cl)ccc3c2)ccc1C1=NC2(CC2)C(=O)N1CC1CN(C(=O)C2(C)CC2)C1` [compound 321, 5-(4-(6-chloronaphthalen-2-yl)-2-methylphenyl)-6-((1-(1-methylcyclopropanecarbonyl)azetidin-3-yl)methyl)-4,6-diazaspiro[2.4]hept-4-en-7-one], the IC50 in the assay on A2780 ovarian cells [1] is 4370 nM; in assay [2], 30.2 nM; in assay [3], 47.9 nM; in assay [4], 50.1 nM; in assay [5], 182 nM; in the assay with A2780 ovarian cells [6], 17.8 nM. Besides, the inhibition at 10 µM in assay [2] was found to be 99%.

Regarding `Cn1cc(-c2ccc(-c3ccc(C4=NC5(CC5)C(=O)N4CC4CN(C(=O)C5CC5)C4)c(F)c3)cc2)cn1` [compound 322, 6-((1-(cyclopropanecarbonyl)azetidin-3-yl)methyl)-5-(3-fluoro-4′-(1-methyl-1H-pyrazol-4-yl)-[1,1′-biphenyl]-4-yl)-4,6-diazaspiro[2.4]hept-4-en-7-one], the IC50 was greater than 10000 nM in the assay with A2780 ovarian cells [1]; 38 nM in assay [2]; 79.4 nM in assay [3]; roughly 34.7 nM in assay [4]; 151 nM in assay [5]; 14.8 nM in the assay with A2780 ovarian cells [6]. Further, the inhibition at 10 µM in assay [2] turned out to be 102%.
